Laboratory results reported in patent US9445594B2, “Molecules having certain pesticidal utilities, intermediates, compositions, and processes, related thereto” (priority 2014, dated 2016).

Assays:
Type in all cases: in vivo
[1] = tested on: Beet Armyworm (Spodoptera exigua, LAPHEG) ("BAW"); assay: Bioassays on BAW, 128-well diet tray assay; conditions: 168 h, second instar larvae, 50 μg/cm^2 on artificial diet, 25° C., five to seven days, average of eight wells, read-out: BAW % Control (or Mortality) rating
Outline: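 One to five second-instar larvae were placed per well on artificial diet surface-treated with 50 μg/cm^2 compound from 90:10 acetone-water, dried before infestation. Trays were held at 25 °C, 14:10 light-dark, for five to seven days. Percent mortality was averaged over eight wells.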

[2] = tested on: Corn Earworm (Helicoverpa zea, HELIZE) ("CEW"); assay: Bioassays on CEW, 128-well diet tray assay; conditions: 168 h, second instar larvae, 50 μg/cm^2 on artificial diet, 25° C., five to seven days, average of eight wells, read-out: CEW % Control (or Mortality) rating
Description: Certain molecules disclosed in this document were tested against BAW, CEW, and CL using procedures described in the following examples. In the reporting of the results, the “BAW, CEW, & CL Rating Table” was used (See Table Section).
Bioassays on CEW were conducted using a 128-well diet tray assay. one to five second instar CEW larvae were placed in each well (3 mL) of the diet tray that had been previously filled with 1 mL of artificial diet to which 50 μg/cm^2 of the test compound (dissolved in 50 μL of 90:10 acetone-water mixture) had been applied (to each of eight wells) and then allowed to dry. Trays were covered with a clear self-adhesive cover, and held at 25° C., 14:10 light-dark for five to seven days. Percent mortality was recorded for the larvae in each well; activity in the eight wells was then averaged. The results are indicated in the table entitled “Table ABC: Biological Results” (See Table Section). Bioassays on CL

[3] = tested on: Cabbage Looper (Trichoplusia ni, TRIPNI) ("CL"); assay: Bioassays on CL, 128-well diet tray assay; conditions: 168 h, second instar larvae, 50 μg/cm^2 on artificial diet, 25° C., five to seven days, average of eight wells, read-out: CL % Control (or Mortality) rating
Outline: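 Second-instar larvae (one to five per well) on artificial diet surface-treated with 50 μg/cm^2 compound in 90:10 acetone-water, eight wells per treatment. Held at 25° C., 14:10 light-dark for five to seven days. Percent mortality scored per well and averaged over the eight wells.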

[4] = tested on: Green Peach Aphid (Myzus persicae, MYZUPE) ("GPA"); assay: Bioassays on GPA, foliar spray of infested cabbage seedlings; conditions: 72 h, 200 ppm spray on cabbage seedlings, graded after three days, Abbott corrected % control, read-out: GPA % Control (or Mortality) rating
Description: Certain molecules disclosed in this document were tested against GPA using procedures described in the following example. In the reporting of the results, the “GPA Rating Table” was used (See Table Section).
Cabbage seedlings grown in 3-inch pots, with 2-3 small (3-5 cm) true leaves, were used as test substrate. The seedlings were infested with 20-50 GPA (wingless adult and nymph stages) one day prior to chemical application. Four pots with individual seedlings were used for each treatment. Test compounds (2 mg) were dissolved in 2 mL of acetone/methanol (1:1) solvent, forming stock solutions of 1000 ppm test compound. The stock solutions were diluted 5× with 0.025% Tween 20 in water to obtain the solution at 200 ppm test compound. A hand-held aspirator-type sprayer was used for spraying a solution to both sides of […] leaves until runoff. Reference plants (solvent check) were sprayed with the diluent only containing 20% by volume of acetone/methanol (1:1) solvent. Treated plants were held in a holding room for three days at approximately 25° C. and ambient relative humidity (RH) prior to grading. Evaluation was conducted by counting the number of live aphids per plant under a microscope. Percent Control was measured by using Abbott's correction formula (W. S. Abbott, “A Method of Computing the Effectiveness of an Insecticide” J. Econ. Entomol. 18 (1925), pp. 265-267) as follows. Corrected % Control=100*(X−Y)/X • where • X=No. of live aphids on solvent check plants and • Y=No. of live aphids on treated plants

[5] = tested on: Yellow Fever Mosquito (Aedes aegypti, AEDSAE) ("YFM"); assay: Bioassays on YFM, 96-well plate larval assay; conditions: about 1 day-old larvae, from 4000 ppm DMSO master plate diluted, room temperature, scored after 3 days
Outline: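 Compounds from 4000 ppm DMSO master plates, diluted in 90:10 water:acetone, dispensed into 96-well plates, six replicates. About 1-day-old larvae added in liver-powder water. Wells covered, held 3 days at room temperature, then scored for mortality.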

## CC(C)c1ccccc1NC(=S)Nc1ccc(-c2ncn(-c3ccc(OC(F)(F)F)cc3)n2)cc1 [F3, 1-(2-isopropylphenyl)-3-(4-(1-(4-(trifluoromethoxy)phenyl)-1H-1,2,4-triazol-3-yl)phenyl)thiourea]
[1]
  mortality at 50 µg/cm2: 50 to 100%
[2]
  mortality at 50 µg/cm2: 50 to 100%

## CSc1ccc(NC(=S)Nc2ccc(-c3ncn(-c4ccc(OC(F)(F)F)cc4)n3)cc2)cn1 [F27, 1-(6-(Methylthio)pyridin-3-yl)-3-(4-(1-(4-(trifluoromethoxy)phenyl)-1H-1,2,4-triazol-3-yl)phenyl)thiourea]
[1]
  mortality at 50 µg/cm2: 0%
[2]
  mortality at 50 µg/cm2: 0%

## FC(F)(F)Oc1ccc(-n2cnc(-c3ccc(NC(=S)Nc4ccc5ccccc5c4)cc3)n2)cc1 [F25, 1-(Naphthalen-2-yl)-3-(4-(1-(4-(trifluoromethoxy)phenyl)-1H-1,2,4-triazol-3-yl)phenyl)thiourea]
[1]
  mortality at 50 µg/cm2: 50 to 100%
[2]
  mortality at 50 µg/cm2: 50 to 100%

## N#Cc1ccc(NC(=S)Nc2ccc(-c3ncn(-c4ccc(OC(F)(F)F)cc4)n3)cc2)cc1 [F7, 1-(4-Cyanophenyl)-3-(4-(1-(4-(trifluoromethoxy)phenyl)-1H-1,2,4-triazol-3-yl)phenyl)thiourea]
[1]
  mortality at 50 µg/cm2: 0%
[2]
  mortality at 50 µg/cm2: 0%

## FC(F)(F)Oc1ccc(-n2cnc(-c3ccc(NC(=S)Nc4cnccc4C(F)(F)F)cc3)n2)cc1 [F12, 1-(4-(1-(4-(trifluoromethoxy)phenyl)-1H-1,2,4-triazol-3-yl)phenyl)-3-(4-(trifluoromethyl)pyridin-3-yl)thiourea]
[1]
  mortality at 50 µg/cm2: 0%
[2]
  mortality at 50 µg/cm2: 0%

## COc1ccc(NC(=S)Nc2ccc(-c3ncn(-c4ccc(OC(F)(F)F)cc4)n3)cc2)c(C)c1 [F43, 1-(4-Methoxy-2-methylphenyl)-3-(4-(1-(4-(trifluoromethoxy)phenyl)-1H-1,2,4-triazol-3-yl)phenyl)thiourea]
[1]
  mortality at 50 µg/cm2: 50 to 100%
[2]
  mortality at 50 µg/cm2: 50 to 100%

## O=C(Nc1ccc(-c2ncn(-c3ccc(OC(F)(F)F)cc3)n2)cc1)Nc1ccccc1N1CCOCC1 [F69, 1-(2-Morpholinophenyl)-3-(4-(1-(4-(trifluoromethoxy)phenyl)-1H-1,2,4-triazol-3-yl)phenyl)urea]
[1]
  mortality at 50 µg/cm2: 50 to 100%
[3]
  mortality at 50 µg/cm2: 50 to 100%
[4]
  mortality at 200 ppm: 0%
[5]
  YFM % Control (or Mortality) rating: A (80-100)

## CCc1ccccc1NC(=O)Nc1ccc(-c2ncn(-c3ccc(OC(F)(F)F)cc3)n2)cc1 [F46, 1-(2-Ethylphenyl)-3-(4-(1-(4-(trifluoromethoxy)phenyl)-1H-1,2,4-triazol-3-yl)phenyl)urea]
[1]
  mortality at 50 µg/cm2: 50 to 100%
[3]
  mortality at 50 µg/cm2: 50 to 100%
[4]
  mortality at 200 ppm: 0 to 80%
[5]
  YFM % Control (or Mortality) rating: B (More than 0 - Less than 80)

## Cc1ccccc1-c1ccccc1NC(=O)NCCCc1ccc(-c2ncn(-c3ccc(OC(F)(F)F)cc3)n2)cc1 [FA1, 1-(2′-Methyl-[1,1′-biphenyl]-2-yl)-3-(3-(4-(1-(4-(trifluoromethoxy)phenyl)-1H-1,2,4-triazol-3-yl)phenyl)propyl)urea]
[1]
  mortality at 50 µg/cm2: 0%
[3]
  mortality at 50 µg/cm2: 50 to 100%
[4]
  mortality at 200 ppm: 0%
[5]
  YFM % Control (or Mortality) rating: A (80-100)

## O=C(Nc1ccc(F)cc1)Nc1ccc(-c2ncn(-c3ccc(OC(F)(F)F)cc3)n2)cc1 [F17, 1-(4-fluorophenyl)-3-(4-(1-(4-(trifluoromethoxy)phenyl)-1H-1,2,4-triazol-3-yl)phenyl)urea]
[1]
  mortality at 50 µg/cm2: 0%
[2]
  mortality at 50 µg/cm2: 0%
[5]
  YFM % Control (or Mortality) rating: D (No activity noticed in this bioassay)

## COc1ccc(NC(=S)Nc2ccc(-c3ncn(-c4ccc(OC(F)(F)F)cc4)n3)cc2)cc1 [F71, 1-(4-Methoxyphenyl)-3-(4-(1-(4-(trifluoromethoxy)phenyl)-1H-1,2,4-triazol-3-yl)phenyl)thiourea]
[1]
  mortality at 50 µg/cm2: 50 to 100%
[2]
  mortality at 50 µg/cm2: 50 to 100%

## CCc1cccc(C)c1NC(=O)NCCCc1ccc(-c2ncn(-c3ccc(OC(F)(F)F)cc3)n2)cc1 [P5, 1-(2-Ethyl-6-methylphenyl)-3-(3-(4-(1-(4-(trifluoromethoxy)phenyl)-1H-1,2,4-triazol-3-yl)phenyl)propyl)urea]
[1]
  mortality at 50 µg/cm2: 0%
[3]
  mortality at 50 µg/cm2: 0%
[4]
  mortality at 200 ppm: 0%
[5]
  YFM % Control (or Mortality) rating: D (No activity noticed in this bioassay)

## CCc1ccccc1-c1cccnc1NC(=O)Nc1ccc(-c2ncn(-c3ccc(OC(F)(F)F)cc3)n2)cc1 [F16, 1-(3-(2-Ethylphenyl)pyridin-2-yl)-3-(4-(1-(4-(trifluoromethoxy)phenyl)-1H-1,2,4-triazol-3-yl)phenyl)urea]
[1]
  mortality at 50 µg/cm2: 50 to 100%
[3]
  mortality at 50 µg/cm2: 50 to 100%
[4]
  mortality at 200 ppm: 0 to 80%
[5]
  YFM % Control (or Mortality) rating: D (No activity noticed in this bioassay)

## CC(C)c1ccccc1-c1ccccc1NC(=S)Nc1ccc(-c2ncn(-c3ccc(OC(F)(F)F)cc3)n2)cc1 [F28, 1-(2′-isopropyl-[1,1′-biphenyl]-2-yl)-3-(4-(1-(4-(trifluoromethoxy)phenyl)-1H-1,2,4-triazol-3-yl)phenyl)thiourea]
[1]
  mortality at 50 µg/cm2: 0 to 50%
[3]
  mortality at 50 µg/cm2: 50 to 100%
[4]
  mortality at 200 ppm: 0 to 80%
[5]
  YFM % Control (or Mortality) rating: D (No activity noticed in this bioassay)

## CC(C)c1cccc(NC(=O)NCCCc2ccc(-c3ncn(-c4ccc(OC(F)(F)F)cc4)n3)cc2)c1 [P2, 1-(3-Isopropylphenyl)-3-(3-(4-(1-(4-(trifluoromethoxy)phenyl)-1H-1,2,4-triazol-3-yl)phenyl)propyl)urea]
[1]
  mortality at 50 µg/cm2: 0 to 50%
[3]
  mortality at 50 µg/cm2: 0%
[4]
  mortality at 200 ppm: 0%
[5]
  YFM % Control (or Mortality) rating: D (No activity noticed in this bioassay)

## CCOc1ccc(NC(=S)Nc2ccc(-c3ncn(-c4ccc(OC(F)(F)F)cc4)n3)cc2)cn1 [F14, 1-(6-Ethoxypyridin-3-yl)-3-(4-(1-(4-(trifluoromethoxy)phenyl)-1H-1,2,4-triazol-3-yl)phenyl)thiourea]
[1]
  mortality at 50 µg/cm2: 0%
[2]
  mortality at 50 µg/cm2: 0%

## O=C(NCCCc1ccc(-c2ncn(-c3ccc(OC(F)(F)F)cc3)n2)cc1)Nc1cccc(-c2ccccc2)c1 [P7, 1-([1,1′-biphenyl]-3-yl)-3-(3-(4-(1-(4-(trifluoromethoxy)phenyl)-1H-1,2,4-triazol-3-yl)phenyl)propyl)urea]
[1]
  mortality at 50 µg/cm2: 0%
[3]
  mortality at 50 µg/cm2: 0%
[4]
  mortality at 200 ppm: 0%
[5]
  YFM % Control (or Mortality) rating: D (No activity noticed in this bioassay)

## CCCc1ccccc1NC(=O)Nc1ccc(-c2ncn(-c3ccc(OC(F)(F)F)cc3)n2)cc1 [F37, 1-(2-propylphenyl)-3-(4-(1-(4-(trifluoromethoxy)phenyl)-1H-1,2,4-triazol-3-yl)phenyl)urea]
[1]
  mortality at 50 µg/cm2: 0 to 50%
[3]
  mortality at 50 µg/cm2: 50 to 100%
[4]
  mortality at 200 ppm: 0 to 80%
[5]
  YFM % Control (or Mortality) rating: B (More than 0 - Less than 80)

## CC(C)c1ccccc1N(C(=O)Nc1ccc(-c2ncn(-c3ccc(OC(F)(F)F)cc3)n2)cc1)C(N)=S [F6, N-[2-(Propan-2-yl)phenyl]-N-(4-{1-[4-(trifluoromethoxy)phenyl]-1H-1,2,4-triazol-3-yl}phenyl)dicarbonimidothioic diamide]
[1]
  mortality at 50 µg/cm2: 50 to 100%
[3]
  mortality at 50 µg/cm2: 50 to 100%
[4]
  mortality at 200 ppm: 0 to 80%
[5]
  YFM % Control (or Mortality) rating: A (80-100)
